Assay [1] deals with Sterol 14-alpha demethylase (Trypanosoma cruzi (strain CL Brener), UniProt Q7Z1V1). Nature of the assay: CYP51 Inhibition Assay. The settings on record: pH 7.4; 37 °C. The method, then: (§1) Briefly, the reaction mixture contained 1 uM CYP51, 2 uM cytochrome P450 reductase, 100 uM dilauroyl-alpha-phosphatidylcholine, 0.4 mg/ml isoctrate dehydrogenase, and 25mM sodium isocitrate in 20mM MOPS (pH 7.4), 50 mM KCl, 5 mM MgCl2, and 10% glycerol. After the addition of the 3H-radiolabeled sterol substrate (~2000 cpm/nmol, final concentration 50 uM) the mixture was preincubated for 5 min at 37 °C in a shaking water bath (GCA Precision Scientific). The reaction was initiated by the addition of 100 uM NADPH and stopped by extraction of the sterols with ethyl acetate. The reaction products were dried, dissolved in methanol, and analyzed by a reverse-phase HPLC system (Waters) equipped with a beta-RAM detector (INUS Systems, Inc.) using a Nova-Pak C18 column (particle size 4 uM, 3.9 x 150 mm) and a linear gradient consisting of water:acetonitrile:methanol (1.0:4.5:4.5) (solvent A) and methanol (solvent B) at a flow rate of 1 ml/min.

The target in another assay is Cytochrome P450 2D6 (Homo sapiens, UniProt P10635). Nature of the assay: CYP Activity Assay. To be noted: 37 °C. Here is the method:
(§2) Inhibition of hepatic cytochromes P450 was assessed in human liver microsomes using a substrate-specific approach of monitoring metabolites formed by each specific CYP enzyme. Metabolic reactions included phenacetin-O-deethylation (1A2), tolbutamide methylhydroxylation (2C9), S-mephenytoin 4'-hydroxylation (2C19), dextrome-thorphan-[…] (2D6), and testosterone-6-β-hydroxylation (3A4). Each substrate was added at a concentration less than or equal to the Km for themetabolic pathway, and microsomal protein concentrations and assay incubation times were optimized for each reaction to ensure linear metabolite formation based on initial rates (Table 1). Microsomes were suspended in phosphate buffer and incubated at 37 °C in the presence of probe substrates. Reactions were initiated by the addition of an NADPH-regenerating buffer system and were quenched at the appropriate times using acetonitrile. Samples were centrifuged and concentrations of metabolites assessed by LC/MS.

The next assay concerns the target Cytochrome P450 2C19 (Homo sapiens, UniProt P33261). Nature of the assay: CYP Activity Assay. The settings on record: 37 °C. Here is the method: as §2
The next assay deals with T1, Cytochrome P450 1A2 (Homo sapiens, UniProt P05177).
T1 sequence (P05177 whole entry): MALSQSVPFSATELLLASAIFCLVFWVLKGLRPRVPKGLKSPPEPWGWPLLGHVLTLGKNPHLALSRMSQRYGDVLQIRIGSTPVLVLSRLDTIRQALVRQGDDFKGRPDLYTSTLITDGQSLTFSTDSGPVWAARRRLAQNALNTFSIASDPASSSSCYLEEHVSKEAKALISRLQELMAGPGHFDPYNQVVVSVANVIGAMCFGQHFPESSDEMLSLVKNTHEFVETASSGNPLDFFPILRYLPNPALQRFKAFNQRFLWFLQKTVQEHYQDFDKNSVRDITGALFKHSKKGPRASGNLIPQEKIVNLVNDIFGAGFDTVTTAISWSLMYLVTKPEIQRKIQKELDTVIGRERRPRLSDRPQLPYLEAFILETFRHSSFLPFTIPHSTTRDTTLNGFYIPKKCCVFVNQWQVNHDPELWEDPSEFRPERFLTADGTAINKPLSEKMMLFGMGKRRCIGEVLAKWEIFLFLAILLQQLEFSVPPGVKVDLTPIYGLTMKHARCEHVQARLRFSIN
As to the kind of experiment: CYP Activity Assay. The settings on record: 37 °C. The method, then:
as §2

The next assay concerns the target Cytochrome P450 2C9 (Homo sapiens, UniProt P11712). As to the kind of experiment: CYP Activity Assay. To be noted: 37 °C. Here is the method: as §2
Assay [2] addresses T2, Lanosterol 14-alpha demethylase (Homo sapiens, UniProt Q16850).
T2 sequence (Q16850 whole entry): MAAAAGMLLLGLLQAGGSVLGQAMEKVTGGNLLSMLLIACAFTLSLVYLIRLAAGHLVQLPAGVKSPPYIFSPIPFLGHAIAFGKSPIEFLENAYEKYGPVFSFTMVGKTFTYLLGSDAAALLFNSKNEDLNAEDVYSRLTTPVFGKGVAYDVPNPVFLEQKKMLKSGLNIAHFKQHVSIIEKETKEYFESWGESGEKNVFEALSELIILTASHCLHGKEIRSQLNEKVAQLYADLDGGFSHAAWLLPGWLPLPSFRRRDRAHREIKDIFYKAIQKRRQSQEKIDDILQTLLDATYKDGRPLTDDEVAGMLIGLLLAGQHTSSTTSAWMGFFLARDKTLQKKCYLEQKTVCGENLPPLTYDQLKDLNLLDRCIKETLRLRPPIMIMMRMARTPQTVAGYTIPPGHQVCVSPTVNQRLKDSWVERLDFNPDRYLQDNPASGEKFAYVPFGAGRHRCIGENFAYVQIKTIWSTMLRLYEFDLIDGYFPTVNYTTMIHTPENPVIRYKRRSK
Nature of the assay: CYP51 Inhibition Assay. To be noted: pH 7.4; 37 °C. Here is the method: as §1

Assay [3] has as its target Putative lanosterol 14-alpha-demethylase (Leishmania infantum, UniProt A2TEF2). Nature of the assay: CYP51 Inhibition Assay. The settings on record: pH 7.4; 37 °C. Here is the method: as §1
The target of another assay is Cytochrome P450 3A4 (Homo sapiens, UniProt P08684). Nature of the assay: CYP Activity Assay. The settings on record: 37 °C. Here is the method: as §2
Chain of Cytochrome P450 3A4 (P08684 whole entry): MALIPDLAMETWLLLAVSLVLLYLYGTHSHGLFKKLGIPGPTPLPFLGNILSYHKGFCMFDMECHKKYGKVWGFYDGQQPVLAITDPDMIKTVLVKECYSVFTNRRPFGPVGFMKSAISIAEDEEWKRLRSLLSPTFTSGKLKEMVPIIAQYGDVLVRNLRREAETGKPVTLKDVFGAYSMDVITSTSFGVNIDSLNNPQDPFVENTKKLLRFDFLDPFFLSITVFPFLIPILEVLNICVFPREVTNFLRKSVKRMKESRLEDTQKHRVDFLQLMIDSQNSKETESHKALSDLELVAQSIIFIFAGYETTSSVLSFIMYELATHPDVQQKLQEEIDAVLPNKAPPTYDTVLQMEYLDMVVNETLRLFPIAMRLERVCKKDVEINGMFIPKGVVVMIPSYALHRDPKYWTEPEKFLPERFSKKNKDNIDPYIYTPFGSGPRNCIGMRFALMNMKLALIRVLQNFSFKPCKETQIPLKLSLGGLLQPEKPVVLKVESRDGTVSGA

Chain of Sterol 14-alpha demethylase (Q7Z1V1 whole entry): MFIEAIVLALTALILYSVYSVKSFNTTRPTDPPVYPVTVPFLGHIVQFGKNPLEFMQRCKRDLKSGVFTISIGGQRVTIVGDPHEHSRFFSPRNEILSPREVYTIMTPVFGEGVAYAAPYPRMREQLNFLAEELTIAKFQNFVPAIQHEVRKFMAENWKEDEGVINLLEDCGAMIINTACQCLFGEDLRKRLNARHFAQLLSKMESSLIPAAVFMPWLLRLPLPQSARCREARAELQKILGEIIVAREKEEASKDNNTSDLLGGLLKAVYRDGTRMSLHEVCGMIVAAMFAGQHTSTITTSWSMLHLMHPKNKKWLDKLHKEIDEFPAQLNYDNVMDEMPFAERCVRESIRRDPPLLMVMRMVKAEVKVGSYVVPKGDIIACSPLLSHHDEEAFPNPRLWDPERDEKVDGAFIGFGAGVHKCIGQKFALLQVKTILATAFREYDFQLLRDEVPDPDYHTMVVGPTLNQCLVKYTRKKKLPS
Chain of Putative lanosterol 14-alpha-demethylase (A2TEF2 whole entry): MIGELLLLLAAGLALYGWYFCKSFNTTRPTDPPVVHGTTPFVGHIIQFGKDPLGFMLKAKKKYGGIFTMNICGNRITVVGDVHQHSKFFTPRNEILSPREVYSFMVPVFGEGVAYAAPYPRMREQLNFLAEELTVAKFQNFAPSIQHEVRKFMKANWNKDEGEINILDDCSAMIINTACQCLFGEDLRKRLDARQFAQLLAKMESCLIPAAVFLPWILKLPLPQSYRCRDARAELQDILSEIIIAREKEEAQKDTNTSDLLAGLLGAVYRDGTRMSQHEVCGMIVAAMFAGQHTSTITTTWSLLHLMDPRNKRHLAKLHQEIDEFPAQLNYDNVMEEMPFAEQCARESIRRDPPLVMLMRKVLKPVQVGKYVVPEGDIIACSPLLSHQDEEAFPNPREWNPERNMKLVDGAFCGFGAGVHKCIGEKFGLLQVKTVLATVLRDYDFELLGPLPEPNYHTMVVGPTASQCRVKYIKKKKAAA
Chain of Cytochrome P450 2C19 (P33261 whole entry): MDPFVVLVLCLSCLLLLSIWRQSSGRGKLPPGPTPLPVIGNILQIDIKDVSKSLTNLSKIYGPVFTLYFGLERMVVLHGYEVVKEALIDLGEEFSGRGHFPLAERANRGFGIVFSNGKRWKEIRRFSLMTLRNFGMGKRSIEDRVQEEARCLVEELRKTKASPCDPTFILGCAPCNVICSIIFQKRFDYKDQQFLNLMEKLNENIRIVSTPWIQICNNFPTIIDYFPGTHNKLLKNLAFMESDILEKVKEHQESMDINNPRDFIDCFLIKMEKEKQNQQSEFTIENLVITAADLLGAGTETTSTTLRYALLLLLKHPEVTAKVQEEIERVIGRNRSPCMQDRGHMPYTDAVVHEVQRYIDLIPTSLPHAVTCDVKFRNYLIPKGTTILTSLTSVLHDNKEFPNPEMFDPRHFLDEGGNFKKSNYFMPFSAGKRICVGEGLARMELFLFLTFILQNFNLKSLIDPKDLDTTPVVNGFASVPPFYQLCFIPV
Chain of Cytochrome P450 2C9 (P11712 whole entry): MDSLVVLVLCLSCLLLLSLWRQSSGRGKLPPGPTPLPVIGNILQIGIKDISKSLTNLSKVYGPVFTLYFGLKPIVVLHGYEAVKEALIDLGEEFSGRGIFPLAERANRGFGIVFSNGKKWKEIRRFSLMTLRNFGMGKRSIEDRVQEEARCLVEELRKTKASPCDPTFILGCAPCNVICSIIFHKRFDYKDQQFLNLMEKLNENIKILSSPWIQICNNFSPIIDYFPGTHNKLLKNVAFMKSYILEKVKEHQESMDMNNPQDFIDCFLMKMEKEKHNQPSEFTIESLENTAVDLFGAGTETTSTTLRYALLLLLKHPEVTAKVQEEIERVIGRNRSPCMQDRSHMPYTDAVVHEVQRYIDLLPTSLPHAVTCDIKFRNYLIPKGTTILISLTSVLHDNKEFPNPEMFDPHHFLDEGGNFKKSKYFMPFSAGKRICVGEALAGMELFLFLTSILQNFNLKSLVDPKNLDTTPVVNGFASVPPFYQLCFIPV
Chain of Cytochrome P450 2D6 (P10635 whole entry): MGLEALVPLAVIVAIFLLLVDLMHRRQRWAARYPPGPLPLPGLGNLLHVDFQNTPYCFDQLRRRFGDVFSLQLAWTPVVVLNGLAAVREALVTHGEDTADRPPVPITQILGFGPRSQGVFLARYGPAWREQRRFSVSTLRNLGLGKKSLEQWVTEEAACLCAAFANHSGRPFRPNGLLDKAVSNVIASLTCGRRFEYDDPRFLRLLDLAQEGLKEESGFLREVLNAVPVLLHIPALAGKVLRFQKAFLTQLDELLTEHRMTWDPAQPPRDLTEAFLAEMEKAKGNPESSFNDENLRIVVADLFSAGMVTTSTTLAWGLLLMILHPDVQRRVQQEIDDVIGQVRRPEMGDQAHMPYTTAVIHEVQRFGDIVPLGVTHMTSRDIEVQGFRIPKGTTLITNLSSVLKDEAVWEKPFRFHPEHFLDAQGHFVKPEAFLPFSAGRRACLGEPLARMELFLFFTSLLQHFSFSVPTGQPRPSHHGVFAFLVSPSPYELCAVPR

For orientation: Kd means the equilibrium constant for the complex coming apart. Consider `O=C(N[C@@H](Cn1ccnc1)c1ccc(Cl)cc1Cl)c1ccc(-c2nnc(-c3ccccc3)o2)cc1` [VNI], for which the Kd in assay [1] turned out to be 0.015 µM. This lies in the double-digit nanomolar range.

The IC50 is the concentration needed to halve the response being measured. Take `FC(F)(F)c1ccc(N(c2cccnc2)C2CCN(c3ccc(C(F)(F)F)cn3)CC2)cc1` [EPL-BS0967 (UDD)]: the IC50 was 20 µM at Cytochrome P450 2D6, 9.8 µM against Cytochrome P450 2C19, > 20 µM at Cytochrome P450 1A2 and 8.1 µM at Cytochrome P450 2C9. The values for the Kd in assay [1], in assay [2] and in assay [3] were 0.032 µM, 0.026 µM and 0.419 µM, respectively.

`O=C([C@@H](c1ccc(Cl)cc1)c1cccnc1)N1CCN(c2ccc(C(F)(F)F)cc2)CC1` [EPL-BS1246 (UDO)]: the IC50 is 4 µM at Cytochrome P450 2D6; 12 µM against Cytochrome P450 2C19; 20 µM against Cytochrome P450 3A4; > 20 µM against Cytochrome P450 1A2; 9 µM at Cytochrome P450 2C9. The Kd in assay [1] came to 0.019 µM; in assay [2] it was 0.069 µM; in assay [3], 0.156 µM.

`CC[C@@H]([C@H](C)O)n1ncn(-c2ccc(N3CCN(c4ccc(OCC5CO[C@@](Cn6cncn6)(c6ccc(F)cc6F)C5)cc4)CC3)cc2)c1=O` (some centres not stated) [Posaconazole] gave a Kd in assay [3] of 0.018 µM. This lies in the double-digit nanomolar range.

The values are drawn from BindingDB's records for doi:10.1074/jbc.M113.497990 (Vanderbilt University, 2013).
